Test results taken from PubChem BioAssay (NCI).
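Briefly, cells in 96-well plates were exposed to five compound concentrations for 48 h, and endpoints were estimated by linear interpolation. GI50 is the concentration that inhibits growth by half. TGI denotes the concentration required for complete inhibition of growth.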

Legend:
Assay in all cases: DTP human tumour cell line panel, 48 h
CAKI-1 renal = system: CAKI-1 renal
NCI/ADR-RES ovarian = system: NCI/ADR-RES ovarian
NCI-H460 lung = system: NCI-H460 lung
HCC-2998 colon = system: HCC-2998 colon
HCT-15 colon = system: HCT-15 colon
HCT-116 colon = system: HCT-116 colon
LOX IMVI melanoma = system: LOX IMVI melanoma
SK-MEL-2 melanoma = system: SK-MEL-2 melanoma
TK-10 renal = system: TK-10 renal
SR leukemia = system: SR leukemia

| SMILES | GI50 (CAKI-1 renal) [µM] | TGI (CAKI-1 renal) [µM] | GI50 (NCI/ADR-RES ovarian) [µM] | TGI (NCI/ADR-RES ovarian) [µM] | GI50 (NCI-H460 lung) [µM] | TGI (NCI-H460 lung) [µM] | GI50 (HCC-2998 colon) [µM] | TGI (HCC-2998 colon) [µM] | GI50 (HCT-15 colon) [µM] | TGI (HCT-15 colon) [µM] | GI50 (HCT-116 colon) [µM] | TGI (HCT-116 colon) [µM] | GI50 (LOX IMVI melanoma) [µM] | TGI (LOX IMVI melanoma) [µM] | GI50 (SK-MEL-2 melanoma) [µM] | TGI (SK-MEL-2 melanoma) [µM] | GI50 (TK-10 renal) [µM] | TGI (TK-10 renal) [µM] | GI50 (SR leukemia) [µM] | TGI (SR leukemia) [µM] |
| --- | --- | --- | --- | --- | --- | --- | --- | --- | --- | --- | --- | --- | --- | --- | --- | --- | --- | --- | --- | --- |
| COc1ccc(C(=O)/C=C/c2ccc(C)cc2)cc1OC | 18.1 | 52.8 | 11.7 | 28.3 | 7.77 | 20.5 | 14.4 | 27.4 | 8.52 | 22.1 | 4.69 | 17.7 | 13 | 25.6 | 15.9 | 40.1 | 16.4 | 37.7 | 2.4 | 6.83 |
| CNC(=O)c1ccc(N2CCN(Cc3ccc4nc(C)c(=O)[nH]c4c3F)CC2)c(F)n1 | 49.4 | > 100 | 78.8 | > 100 | 73.8 | > 100 | > 100 | > 100 | > 100 | > 100 | 91.4 | > 100 | > 100 | > 100 | 76.2 | > 100 | 72.3 | > 100 | 63.1 | > 100 |
| OCc1ccc(-c2ccc(-c3ccc(CO)o3)[se]2)o1 | > 100 | > 100 | > 60.9 | > 100 | > 72.7 | > 100 | > 100 | > 100 | > 100 | > 100 | 69.4 | > 100 | > 91.9 | > 100 | > 84.5 | > 100 | > 100 | > 100 | > 69.2 | > 100 |
| C=C(C)C(=O)O[C@H]1C[C@@]23O[C@@H]2CCC(=C[C@H]2OC(=O)C(=C)[C@H]12)COC3O (stereo not given in full) | – | > 100 | – | > 100 | – | > 100 | – | > 100 | – | 43.5 | – | 37.5 | – | 30.5 | – | > 100 | – | > 100 | – | 95.1 |
| CC(C)(C)C(=O)c1c(C(F)(F)F)n([O-])c2ccccc2[n+]1=O | 0.282 | 0.811 | 0.571 | 2.36 | 0.439 | 1.52 | – | – | 0.365 | 0.914 | 0.619 | 1.59 | 0.396 | 1.7 | – | 3.23 | 0.896 | 2.18 | – | 0.209 |
| COc1ccc2c(C)cc(N/N=C/c3ccc(OC)c4ccccc34)nc2c1 | – | 26.9 | – | 32.7 | – | 41.1 | – | – | – | 23.4 | – | 18.1 | – | 12.3 | – | 37.2 | – | 31.8 | – | 22.3 |
| Cc1nn(-c2nc3ccccc3[nH]2)c(N)c1-c1ccc(Cl)cc1 | 8.82 | > 100 | 4.84 | > 100 | 2.96 | > 100 | 5.12 | > 100 | 3.88 | > 100 | 4.37 | > 100 | 5.02 | > 100 | 5.88 | > 100 | 4.51 | > 100 | 3.63 | > 100 |
